What was measured:
Format in all cases: in vivo
Blattalla germanica = experiment: Experimental Example 3: treated filter paper with sucrose bait, German cockroach; conditions: 500 ppm, 0.7 ml on filter paper; two male imagoes; after 6 days
Experimental: A filter paper having a diameter of 5.5 cm was spread on the bottom of a polyethylene cup having a diameter of 5.5 cm and 0.7 ml of the experimental pesticidal solution was added dropwise onto the filter paper. As a bait 30 mg of sucrose was uniformly placed on the filter paper. Into the polyethylene cup, two male Blattalla germanica imagoes were released and the cup was sealed with a lid. After 6 days, the number of surviving Blattalla germanica was examined and the death rate of the pest was calculated.

Blattella germanica [1] = experiment: Experimental Example 14: topical application, Blattella germanica; conditions: 1 μl of 1% (w/v) acetone solution onto sternum of thorax of female imagoes; after 7 days
Experimental: 1% (w/v) solutions of the present compounds (4), (20), (22), (23), (24), (29), (30), (31), (35), (36), (37), (38), (46), (53), (54), (56), (57), (59), (61), (66), (67), (68), (69), (70), (71), (79), (81), (83), (84), (89), and (90) in acetone were prepared. Onto the sternum of the thorax of female imagoes of Blattella germanica, 1 μl of the acetone solution was added dropwise. The imagoes were transferred to a plastic cup having a diameter of about 9 cm and a height of about 4.5 cm and left together with feed and water at 25° C. After 7 days, the number of surviving Blattella germanica was examined and the death rate of the pest was calculated. 10 imagoes of Blattella germanica were put in a cup and three replicate experiments were performed.

Blattella germanica [2] = experiment: Experimental Example 15: treated filter paper in paper box, Blattella germanica; conditions: 0.1 ml of 2.5% (w/v) acetone solution on filter paper in paper box; after 7 days
Experimental: (§1) 2.5% (w/v) solutions of the present compounds (23), (24) and (31) in acetone were prepared. 0.1 ml of the solution was added dropwise onto a filter paper with 2 cm×2 cm and then air-dried. This filter paper was attached to the center of the inside bottom of a paper box having 10 cm (width)×2 cm (height)×7 cm (depth) with a two-sided tape. One hole of 5 mm in width and 2 cm in height was made through one side of this box. This box was placed in a plastic vat with 25 cm×20 cm×8 cm in height and therein 10 females and 10 males of Blattella germanica were released. The inside wall of the plastic vat used in this experiment was coated with talc for preventing the escape of cockroaches. The plastic vat contained feed and water and left at 25° C. After 7 days, Blattella germanica was observed and the death rate of the pest was calculated. This experiment was repeated two times.

Periplaneta fuliginosa = experiment: Experimental Example 16: treated filter paper in paper box, Periplaneta fuliginosa; conditions: 0.1 ml of 5% (w/v) acetone solution on filter paper in paper box; after 7 days
Experimental: as §1, with “5% (w/v)” for “2.5% (w/v)”, “of 2” for “of 5”, “therein 3” for “therein 10”, “and 3” for “and 10”, “of Periplaneta fuliginosa” for “of Blattella germanica”, “days, Periplaneta fuliginosa” for “days, Blattella germanica”

Row | Structure (SMILES) | death rate of the pest (Blattalla germanica) [%] | death rate of the pest (Blattella germanica [1]) [%] | death rate of the pest (Blattella germanica [2]) [%] | death rate of the pest (Periplaneta fuliginosa) [%]
1 | N#CC(C#N)(CCCCCl)CCC(F)(F)F [(3)] | 100 |  |  | 
2 | N#CC(C#N)(CCC(F)(F)F)CC1CC1(Cl)Cl (stereo not drawn) [(4)] | 100 | 100 |  | 
3 | N#CC(C#N)(CCC(F)(F)F)CCC(F)(F)F [(5)] | 100 |  |  | 
4 | CCCCCC(C#N)(C#N)CCC(F)(F)F [(9)] | 100 |  |  | 
5 | CCCCCCC(C#N)(C#N)CCC(F)(F)F [(10)] | 100 |  |  | 
6 | N#CC(C#N)(CCC(F)=C(F)F)CCC(F)(F)F [(17)] | 100 |  |  | 
7 | N#CC(C#N)(CCC(F)(F)F)CC(F)(F)C(F)F [(20)] | 100 | 100 |  | 
8 | N#CC(C#N)(CCC(F)(F)F)CC(F)(F)F [(21)] | 100 |  |  | 
9 | N#CC(C#N)(CCC(F)(F)F)CC(F)(F)C(F)(F)F [(22)] | 100 | 100 |  | 
10 | N#CC(C#N)(CCC(F)(F)F)CC(F)(F)C(F)C(F)(F)F (stereo not drawn) [(23)] | 100 | 100 | 97.5 | 91.7
11 | N#CC(C#N)(CCF)CCC(F)(F)F [(25)] | 100 |  |  | 
12 | C#CCC(C#N)(C#N)CCC(F)(F)F [(27)] | 100 |  |  | 
13 | N#CC(C#N)(CCC(F)(F)F)CCC(F)(F)C(F)(F)F [(29)] | 100 | 100 |  | 
14 | N#CC(C#N)(CCC(F)(F)F)CCC(F)(Cl)C(F)(F)Br (stereo not drawn) [(30)] | 100 | 100 |  | 
15 | N#CC(C#N)(CCC(F)(F)F)CC(F)(F)C(F)(F)C(F)(F)C(F)(F)C(F)(F)C(F)F [(32)] | 100 |  |  | 
16 | N#CC(C#N)(CCC(F)(F)F)CCC(F)(F)C(F)(F)Br [(35)] | 100 | 100 |  | 
17 | N#CC(C#N)(CCC(F)(F)F)CCC(F)(C(F)(F)F)C(F)(F)F [(36)] | 100 | 100 |  | 
18 | N#CC(C#N)(CCC(F)(F)F)CCC(F)(F)C(F)(F)C(F)(F)F [(37)] | 100 | 100 |  | 
19 | N#CC(C#N)(CCC(F)(F)F)CCC(F)(F)C(F)(F)C(F)(F)C(F)(F)F [(38)] | 100 | 100 |  | 
20 | N#CC(C#N)(CCC(F)(Cl)C(F)(F)Br)CC(F)(F)C(F)C(F)(F)F (stereo not drawn) [(46)] | 100 | 100 |  | 
21 | C=CCC(C#N)(C#N)CC(F)(F)C(F)(F)C(F)(F)C(F)F [(47)] | 100 |  |  | 
22 | N#CC(C#N)(CCCC(F)(F)F)CCC(F)(F)F [(48)] | 100 |  |  | 
23 | N#CC(C#N)(CC(F)(F)C(F)F)CC(F)(F)C(F)F [(50)] | 100 |  |  | 
24 | N#CC(C#N)(CBr)CCC(F)(F)F [(52)] | 100 |  |  | 
25 | N#CC(C#N)(CCC(F)(F)F)CCC(F)(Cl)C(F)(F)Cl (stereo not drawn) [(54)] | 100 | 100 |  | 
26 | N#CC(C#N)(CCCCCF)CCC(F)(F)F [(55)] | 100 |  |  | 
27 | N#CC(C#N)(CCC(F)(C(F)(F)F)C(F)(F)F)CCC(F)(C(F)(F)F)C(F)(F)F [(56)] | 100 | 100 |  | 
28 | N#CC(C#N)(CC(Br)C(F)(F)F)CC(F)(F)C(F)(F)C(F)(F)C(F)F (stereo not drawn) [(57)] |  | 100 |  | 

Row | Structure (SMILES) | death rate of the pest (Blattalla germanica) [%] | death rate of the pest (Blattella germanica [1]) [%] | death rate of the pest (Blattella germanica [2]) [%] | death rate of the pest (Periplaneta fuliginosa) [%]
29 | N#CC(C#N)(CCC(F)(F)F)CC(Cl)C(F)(F)F (stereo not drawn) [(58)] | 100 |  |  | 
30 | CC(F)(F)CCC(C#N)(C#N)CC(F)(F)C(F)(F)C(F)(F)C(F)F [(59)] | 100 | 100 |  | 
31 | N#CC(C#N)(CCCCC(F)F)CCC(F)(F)F [(60)] | 100 |  |  | 
32 | N#CC(C#N)(CC(F)(F)C(F)F)CC(F)(F)C(F)(F)C(F)(F)C(F)F [(61)] | 100 | 100 |  | 
33 | CC(F)(F)CCC(C#N)(C#N)CCC(F)(F)F [(64)] | 100 |  |  | 
34 | N#CC(C#N)(CCCC(F)(F)F)CC(F)(F)C(F)(F)C(F)(F)C(F)F [(66)] | 100 | 100 |  | 
35 | N#CC(C#N)(CCC(F)(Cl)C(F)(F)Cl)CC(F)(F)C(F)(F)C(F)(F)C(F)F (stereo not drawn) [(67)] | 100 | 100 |  | 
36 | N#CC(C#N)(CCC(F)(F)C(F)(F)F)CC(F)(F)C(F)(F)C(F)(F)C(F)F [(68)] | 100 | 100 |  | 
37 | N#CC(C#N)(CC(Cl)C(F)(F)F)CC(F)(F)C(F)(F)C(F)(F)C(F)F (stereo not drawn) [(69)] | 100 | 100 |  | 
38 | CCC(F)(F)CCC(C#N)(C#N)CCC(F)(F)F [(70)] |  | 100 |  | 
39 | N#CC(C#N)(CCC(F)(F)C(F)(F)C(F)(F)F)CC(F)(F)C(F)(F)C(F)(F)C(F)F [(71)] | 100 | 100 |  | 
40 | N#CC(C#N)(CC1CC1)CC(F)(F)C(F)(F)C(F)(F)C(F)F [(72)] | 100 |  |  | 
41 | C=CCCC(C#N)(C#N)CC(F)(F)C(F)(F)C(F)(F)C(F)F [(73)] | 100 |  |  | 
42 | N#CC(C#N)(CCCF)CC(F)(F)C(F)(F)C(F)(F)C(F)F [(74)] | 100 |  |  | 
43 | N#CC(C#N)(CCC(F)=C(F)F)CC(F)(F)C(F)(F)C(F)(F)C(F)F [(75)] | 100 |  |  | 
44 | CC(C)=CCC(C#N)(C#N)CC(F)(F)C(F)(F)C(F)(F)C(F)F [(78)] | 100 |  |  | 
45 | N#CC(C#N)(CC(F)(F)C(F)(F)C(F)(F)F)CC(F)(F)C(F)(F)C(F)(F)C(F)F [(79)] | 100 | 100 |  | 
46 | CCCCC(C#N)(C#N)CC(F)(F)C(F)(F)C(F)(F)C(F)F [(80)] | 100 |  |  | 
47 | N#CC(C#N)(CC(F)(F)C(F)C(F)(F)F)CC(F)(F)C(F)(F)C(F)(F)C(F)F (stereo not drawn) [(81)] | 100 | 100 |  | 
48 | CCCC(C#N)(C#N)CC(F)(F)C(F)(F)C(F)(F)C(F)F [(82)] | 100 |  |  | 
49 | N#CC(C#N)(CCC(F)(F)F)CC1CCC(F)(F)CC1 [(83)] | 100 | 100 |  | 
50 | N#CC(C#N)(CCC1CCC(F)(F)C1)CCC(F)(F)F (stereo not drawn) [(84)] |  | 100 |  | 
51 | N#CC(C#N)(CCC(F)(F)F)C[C@H]1CCC[C@@H](C(F)F)C1 [(87)] | 100 |  |  | 
52 | N#CC(C#N)(CCC(F)(F)F)C[C@H]1CCC[C@@H](CF)C1 [(88)] | 100 |  |  | 
53 | N#CC(C#N)(CCCC(F)(F)C(F)(F)F)CCC(F)(F)F [(89)] | 100 | 100 |  | 
54 | CC(F)(F)CCCC(C#N)(C#N)CCC(F)(F)F [(90)] |  | 100 |  | 
55 | N#CC(C#N)(CC(F)(F)C(F)(F)F)CC(F)(F)C(F)(F)F [(93)] | 100 |  |  | 

Source: patent US20070112068A1, “Nitrile compound and its use in pest control” (priority 2003, published 2007)
